Reference: paper PMC4970445, “Multiple active site residues are important for photochemical efficiency in the light-activated enzyme protochlorophyllide oxidoreductase (POR)^” (Journal of Photochemistry and Photobiology. B, Biology, 2016)

Key:
Test in all cases: FRET from protein Trp to bound NADPH
Assay type in all cases: binding
[1] = molecular target: T1, protochlorophyllide oxidoreductase (POR) (Thermosynechococcus vestitus, UniProt Q8DLC1)
T1 construct: recombinant, overexpressed in Escherichia coli, purified as in earlier work
T1 sequence (Q8DLC1 1-322): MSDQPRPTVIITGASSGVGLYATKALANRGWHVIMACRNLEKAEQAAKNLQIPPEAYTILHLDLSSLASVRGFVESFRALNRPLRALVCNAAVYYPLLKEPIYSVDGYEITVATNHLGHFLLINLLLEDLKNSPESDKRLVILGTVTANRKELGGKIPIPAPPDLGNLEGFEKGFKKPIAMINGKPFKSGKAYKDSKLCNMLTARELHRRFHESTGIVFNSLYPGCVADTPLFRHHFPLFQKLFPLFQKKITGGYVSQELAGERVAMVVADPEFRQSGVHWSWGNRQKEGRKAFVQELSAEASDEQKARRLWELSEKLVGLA
Source text: (§1) FRET from protein Trp to bound NADPH on protochlorophyllide oxidoreductase (POR)

[2] = molecular target: T2, protochlorophyllide oxidoreductase (POR) (Thermosynechococcus vestitus, UniProt Q8DLC1, G19A)
T2 construct: recombinant, overexpressed in Escherichia coli, purified as in earlier work
T2 sequence (Q8DLC1 entry or part of it G19A): as the sequence (Q8DLC1 1-322) above, with G19A counted along it
Source text: as §1

[3] = molecular target: T3, protochlorophyllide oxidoreductase (POR) (Thermosynechococcus vestitus, UniProt Q8DLC1, K42A)
T3 construct: recombinant, overexpressed in Escherichia coli, purified as in earlier work
T3 sequence (Q8DLC1 entry or part of it K42A): as the sequence (Q8DLC1 1-322) above, with K42A counted along it
Source text: as §1

[4] = molecular target: T4, protochlorophyllide oxidoreductase (POR) (Thermosynechococcus vestitus, UniProt Q8DLC1, R38V)
T4 construct: recombinant, overexpressed in Escherichia coli, purified as in earlier work
T4 sequence (Q8DLC1 entry or part of it R38V): as the sequence (Q8DLC1 1-322) above, with R38V counted along it
Source text: as §1

[5] = molecular target: T5, protochlorophyllide oxidoreductase (POR) (Thermosynechococcus vestitus, UniProt Q8DLC1, S16C)
T5 construct: recombinant, overexpressed in Escherichia coli, purified as in earlier work
T5 sequence (Q8DLC1 entry or part of it S16C): as the sequence (Q8DLC1 1-322) above, with S16C counted along it
Source text: as §1

[6] = molecular target: T6, protochlorophyllide oxidoreductase (POR) (Thermosynechococcus vestitus, UniProt Q8DLC1, T230F)
T6 construct: recombinant, overexpressed in Escherichia coli, purified as in earlier work
T6 sequence (Q8DLC1 entry or part of it T230F): as the sequence (Q8DLC1 1-322) above, with T230F counted along it
Source text: as §1

- Kd [1]: 21 ± 1 nM
- Kd [2]: 182 ± 31 nM
- Kd [3]: 230 ± 81 nM
- Kd [4]: 411 ± 76 nM
- Kd [5]: 325 ± 90 nM
- Kd [6]: 436 ± 87 nM
SMILES: NC(=O)C1=CN([C@@H]2O[C@H](COP(=O)(O)OP(=O)(O)OC[C@H]3O[C@@H](n4cnc5c(N)ncnc54)[C@H](OP(=O)(O)O)[C@@H]3O)[C@@H](O)[C@H]2O)C=CC1 [NADPH]
